Laboratory results reported in the supplement of paper PMC13380429.

Columns and labels:
Conditions in all cases: 72 h
Caco-2 [1] = test: cell viability relative to DMSO; higher = less toxic
Calu-3 [2] = test: as above
HepG2 [3] = test: as above
U2OS [4] = test: as above
Caco-2 [5] = test: relative viability EC50 (midpoint between 100% and the lowest measured viability); higher = less toxic
Calu-3 [6] = test: as above
HepG2 [7] = test: as above
U2OS [8] = test: as above
Caco-2 [9] = test: drug sensitivity score (DSS) for viability; higher = more toxic; extreme values may be limits of the assay
Calu-3 [10] = test: as above
HepG2 [11] = test: as above
U2OS [12] = test: as above
Vero E6 [13] = test: as above
Vero E6 [14] = test: cell viability relative to DMSO; higher = less toxic

## CC[N+](CC)(CC)CCOc1cccc(OCC[N+](CC)(CC)CC)c1OCC[N+](CC)(CC)CC [gallamine-triethiodide]
Caco-2 [1]; 1 nM
  cell viability: 104%
Caco-2 [1]; 10 nM
  cell viability: 96.2%
Caco-2 [1]; 100 nM
  cell viability: 91.5%
Caco-2 [1]; 1000 nM
  cell viability: 98.2%
Caco-2 [1]; 10000 nM
  cell viability: 101%
Calu-3 [2]; 1 nM
  cell viability: 104%
Calu-3 [2]; 10 nM
  cell viability: 108%
Calu-3 [2]; 100 nM
  cell viability: 104%
Calu-3 [2]; 1000 nM
  cell viability: 90.8%
Calu-3 [2]; 10000 nM
  cell viability: 95%
HepG2 [3]; 1 nM
  cell viability: 94.7%
HepG2 [3]; 10 nM
  cell viability: 102%
HepG2 [3]; 100 nM
  cell viability: 94%
HepG2 [3]; 1000 nM
  cell viability: 93.1%
HepG2 [3]; 10000 nM
  cell viability: 95.6%
U2OS [4]; 1 nM
  cell viability: 103%
U2OS [4]; 10 nM
  cell viability: 101%
U2OS [4]; 100 nM
  cell viability: 102%
U2OS [4]; 1000 nM
  cell viability: 99.8%
U2OS [4]; 10000 nM
  cell viability: 100%
Caco-2 [5]
  relative viability EC50: > 10 µM
Calu-3 [6]
  relative viability EC50: > 10 µM
HepG2 [7]
  relative viability EC50: > 10 µM
U2OS [8]
  relative viability EC50: > 10 µM
Caco-2 [9]
  drug sensitivity score: 0
Calu-3 [10]
  drug sensitivity score: 0
HepG2 [11]
  drug sensitivity score: 0
U2OS [12]
  drug sensitivity score: 0

## COC(=O)C1=CO[C@@H](O[C@@H]2O[C@H](CO)[C@@H](O)[C@H](O)[C@H]2O)[C@@H]2C(CO)=CC[C@H]12 [geniposide]
Caco-2 [1]; 1 nM
  cell viability: 99.6%
Caco-2 [1]; 10 nM
  cell viability: 94.5%
Caco-2 [1]; 100 nM
  cell viability: 93.5%
Caco-2 [1]; 1000 nM
  cell viability: 95.9%
Caco-2 [1]; 10000 nM
  cell viability: 93.9%
Calu-3 [2]; 1 nM
  cell viability: 84.8%
Calu-3 [2]; 10 nM
  cell viability: 98.2%
Calu-3 [2]; 100 nM
  cell viability: 91.2%
Calu-3 [2]; 1000 nM
  cell viability: 96.4%
Calu-3 [2]; 10000 nM
  cell viability: 98.4%
HepG2 [3]; 1 nM
  cell viability: 104%
HepG2 [3]; 10 nM
  cell viability: 95.5%
HepG2 [3]; 100 nM
  cell viability: 106%
HepG2 [3]; 1000 nM
  cell viability: 114%
HepG2 [3]; 10000 nM
  cell viability: 92.4%
U2OS [4]; 1 nM
  cell viability: 93.9%
U2OS [4]; 10 nM
  cell viability: 99.4%
U2OS [4]; 100 nM
  cell viability: 94.9%
U2OS [4]; 1000 nM
  cell viability: 99.5%
U2OS [4]; 10000 nM
  cell viability: 99%
Caco-2 [5]
  relative viability EC50: > 10 µM
Calu-3 [6]
  relative viability EC50: > 10 µM
HepG2 [7]
  relative viability EC50: > 10 µM
U2OS [8]
  relative viability EC50: > 10 µM
Caco-2 [9]
  drug sensitivity score: 0
Calu-3 [10]
  drug sensitivity score: 0
HepG2 [11]
  drug sensitivity score: 0
U2OS [12]
  drug sensitivity score: 0

## CC(C)Cc1ccc(C(C)C(=O)NO)cc1 (stereo unspecified) [ibuproxam]
Calu-3 [10]
  drug sensitivity score: 0
HepG2 [11]
  drug sensitivity score: 0
U2OS [12]
  drug sensitivity score: 0
Vero E6 [13]
  drug sensitivity score: 0

## c1cc(Cc2cnc[nH]2)ccn1 [immethridine]
Caco-2 [1]; 1 nM
  cell viability: 99.7%
Caco-2 [1]; 10 nM
  cell viability: 103%
Caco-2 [1]; 100 nM
  cell viability: 95%
Caco-2 [1]; 1000 nM
  cell viability: 97.1%
Caco-2 [1]; 10000 nM
  cell viability: 90.3%
Calu-3 [2]; 1 nM
  cell viability: 107%
Calu-3 [2]; 10 nM
  cell viability: 96.8%
Calu-3 [2]; 100 nM
  cell viability: 94.6%
Calu-3 [2]; 1000 nM
  cell viability: 94.8%
Calu-3 [2]; 10000 nM
  cell viability: 103%
HepG2 [3]; 1 nM
  cell viability: 93.8%
HepG2 [3]; 10 nM
  cell viability: 104%
HepG2 [3]; 100 nM
  cell viability: 99.1%
HepG2 [3]; 1000 nM
  cell viability: 93.4%
HepG2 [3]; 10000 nM
  cell viability: 97%
U2OS [4]; 1 nM
  cell viability: 94.1%
U2OS [4]; 10 nM
  cell viability: 99.9%
U2OS [4]; 100 nM
  cell viability: 97.4%
U2OS [4]; 1000 nM
  cell viability: 102%
U2OS [4]; 10000 nM
  cell viability: 98.4%
Caco-2 [5]
  relative viability EC50: > 10 µM
Calu-3 [6]
  relative viability EC50: > 10 µM
HepG2 [7]
  relative viability EC50: > 10 µM
U2OS [8]
  relative viability EC50: > 10 µM
Caco-2 [9]
  drug sensitivity score: 0
Calu-3 [10]
  drug sensitivity score: 0
HepG2 [11]
  drug sensitivity score: 0
U2OS [12]
  drug sensitivity score: 0

## CNC(=O)c1c(I)c(C(=O)NCC(=O)Nc2c(I)c(C(=O)O)c(I)c(C(=O)NCCO)c2I)c(I)c(N(C)C(C)=O)c1I [ioxaglic-acid]
Caco-2 [1]; 1 nM
  cell viability: 104%
Caco-2 [1]; 10 nM
  cell viability: 92.4%
Caco-2 [1]; 100 nM
  cell viability: 106%
Caco-2 [1]; 1000 nM
  cell viability: 100%
Caco-2 [1]; 10000 nM
  cell viability: 103%
Calu-3 [2]; 1 nM
  cell viability: 109%
Calu-3 [2]; 10 nM
  cell viability: 101%
Calu-3 [2]; 100 nM
  cell viability: 97.2%
Calu-3 [2]; 1000 nM
  cell viability: 102%
Calu-3 [2]; 10000 nM
  cell viability: 95.5%
HepG2 [3]; 1 nM
  cell viability: 95.9%
HepG2 [3]; 10 nM
  cell viability: 98.4%
HepG2 [3]; 100 nM
  cell viability: 94%
HepG2 [3]; 1000 nM
  cell viability: 98.2%
HepG2 [3]; 10000 nM
  cell viability: 96.9%
U2OS [4]; 1 nM
  cell viability: 106%
U2OS [4]; 10 nM
  cell viability: 96.9%
U2OS [4]; 100 nM
  cell viability: 102%
U2OS [4]; 1000 nM
  cell viability: 101%
U2OS [4]; 10000 nM
  cell viability: 104%
Caco-2 [5]
  relative viability EC50: > 10 µM
Calu-3 [6]
  relative viability EC50: > 10 µM
HepG2 [7]
  relative viability EC50: > 10 µM
U2OS [8]
  relative viability EC50: > 10 µM
Caco-2 [9]
  drug sensitivity score: 0
Calu-3 [10]
  drug sensitivity score: 0
HepG2 [11]
  drug sensitivity score: 0
U2OS [12]
  drug sensitivity score: 0

## CCOC(=O)CSCCC1NC(C(=O)O)CS1 (stereo unspecified) [letosteine]
Caco-2 [1]; 1 nM
  cell viability: 90.8%
Caco-2 [1]; 10 nM
  cell viability: 80.7%
Caco-2 [1]; 100 nM
  cell viability: 97.4%
Caco-2 [1]; 1000 nM
  cell viability: 97.9%
Caco-2 [1]; 10000 nM
  cell viability: 75.5%
Calu-3 [2]; 1 nM
  cell viability: 97.6%
Calu-3 [2]; 10 nM
  cell viability: 97.1%
Calu-3 [2]; 100 nM
  cell viability: 116%
Calu-3 [2]; 1000 nM
  cell viability: 96.9%
Calu-3 [2]; 10000 nM
  cell viability: 101%
HepG2 [3]; 1 nM
  cell viability: 80.5%
HepG2 [3]; 10 nM
  cell viability: 96.4%
HepG2 [3]; 100 nM
  cell viability: 98.7%
HepG2 [3]; 1000 nM
  cell viability: 95.6%
HepG2 [3]; 10000 nM
  cell viability: 92.9%
U2OS [4]; 1 nM
  cell viability: 101%
U2OS [4]; 10 nM
  cell viability: 102%
U2OS [4]; 100 nM
  cell viability: 107%
U2OS [4]; 1000 nM
  cell viability: 99.6%
U2OS [4]; 10000 nM
  cell viability: 103%
Vero E6 [14]; 1 nM
  cell viability: 75.4%
Vero E6 [14]; 10 nM
  cell viability: 102%
Vero E6 [14]; 100 nM
  cell viability: 74.4%
Vero E6 [14]; 1000 nM
  cell viability: 98.3%
Vero E6 [14]; 10000 nM
  cell viability: 93.3%
Caco-2 [5]
  relative viability EC50: > 10 µM
Calu-3 [6]
  relative viability EC50: > 10 µM
HepG2 [7]
  relative viability EC50: > 10 µM
U2OS [8]
  relative viability EC50: > 10 µM
Caco-2 [9]
  drug sensitivity score: 0
Calu-3 [10]
  drug sensitivity score: 0
HepG2 [11]
  drug sensitivity score: 0
U2OS [12]
  drug sensitivity score: 0
Vero E6 [13]
  drug sensitivity score: 1.1

## N[C@H](Cc1cc(I)c(Oc2ccc(O)c(I)c2)c(I)c1)C(=O)O [liothyronine-(isomer)]
Caco-2 [1]; 1 nM
  cell viability: 99.7%
Caco-2 [1]; 10 nM
  cell viability: 92.9%
Caco-2 [1]; 100 nM
  cell viability: 100%
Caco-2 [1]; 1000 nM
  cell viability: 104%
Caco-2 [1]; 10000 nM
  cell viability: 92.7%
HepG2 [3]; 1 nM
  cell viability: 109%
HepG2 [3]; 10 nM
  cell viability: 99.7%
HepG2 [3]; 100 nM
  cell viability: 107%
HepG2 [3]; 1000 nM
  cell viability: 102%
HepG2 [3]; 10000 nM
  cell viability: 105%
U2OS [4]; 1 nM
  cell viability: 101%
U2OS [4]; 10 nM
  cell viability: 99.9%
U2OS [4]; 100 nM
  cell viability: 96.8%
U2OS [4]; 1000 nM
  cell viability: 102%
U2OS [4]; 10000 nM
  cell viability: 96%
Vero E6 [14]; 1 nM
  cell viability: 98.8%
Vero E6 [14]; 10 nM
  cell viability: 92.9%
Vero E6 [14]; 100 nM
  cell viability: 93.1%
Vero E6 [14]; 1000 nM
  cell viability: 90.7%
Vero E6 [14]; 10000 nM
  cell viability: 91.1%
Caco-2 [9]
  drug sensitivity score: 0
HepG2 [11]
  drug sensitivity score: 0
U2OS [12]
  drug sensitivity score: 0
Vero E6 [13]
  drug sensitivity score: 0

## CC1CS(=O)(=O)CCN1/N=C/c1ccc([N+](=O)[O-])o1 (stereo unspecified) [nifurtimox]
Calu-3 [10]
  drug sensitivity score: 0
HepG2 [11]
  drug sensitivity score: 0
U2OS [12]
  drug sensitivity score: 0
Vero E6 [13]
  drug sensitivity score: 0

## O=C(O)c1cc(=O)[nH]c(=O)[nH]1 [orotic-acid]
Caco-2 [1]; 1 nM
  cell viability: 105%
Caco-2 [1]; 10 nM
  cell viability: 94.8%
Caco-2 [1]; 100 nM
  cell viability: 92.6%
Caco-2 [1]; 1000 nM
  cell viability: 80%
Caco-2 [1]; 10000 nM
  cell viability: 102%
Calu-3 [2]; 1 nM
  cell viability: 103%
Calu-3 [2]; 10 nM
  cell viability: 98.7%
Calu-3 [2]; 100 nM
  cell viability: 97.6%
Calu-3 [2]; 1000 nM
  cell viability: 99.6%
Calu-3 [2]; 10000 nM
  cell viability: 100%
HepG2 [3]; 1 nM
  cell viability: 106%
HepG2 [3]; 10 nM
  cell viability: 117%
HepG2 [3]; 100 nM
  cell viability: 98.6%
HepG2 [3]; 1000 nM
  cell viability: 106%
HepG2 [3]; 10000 nM
  cell viability: 100%
U2OS [4]; 1 nM
  cell viability: 102%
U2OS [4]; 10 nM
  cell viability: 101%
U2OS [4]; 100 nM
  cell viability: 104%
U2OS [4]; 1000 nM
  cell viability: 97.7%
U2OS [4]; 10000 nM
  cell viability: 99.4%
Caco-2 [5]
  relative viability EC50: > 10 µM
Calu-3 [6]
  relative viability EC50: > 10 µM
HepG2 [7]
  relative viability EC50: > 10 µM
U2OS [8]
  relative viability EC50: > 10 µM
Caco-2 [9]
  drug sensitivity score: 0
Calu-3 [10]
  drug sensitivity score: 0
HepG2 [11]
  drug sensitivity score: 0
U2OS [12]
  drug sensitivity score: 0
